We go through five molecules from patent EP2774915A1, “New derivatives of resveratrol” (Mattarei, Andrea, priority 2013, dated 2014).

Molecules are shown by their SMILES. Where two headings read alike, the source gives them in different places.

For series [1] the following is noted: pH 5.
Procedure: (§1) Solubility in aqueous media. A calibration curve is constructed via HPLC analysis of a series of solutions of the compound of interest at known concentrations in a suitable solvent. A known amount (excess) of solid compound is placed in a 20-mL vial to which a 5 mL aliquot of 1 mM acetate buffer at pH 5 is then added. The contents are stirred at 25°C for 24 hours. After a 4-hour decantation period, 1 mL of the supernatant is filtered through a PTFE 0.45 µm filter, diluted with 2 v/v of acetonitrile and analyzed by HPLC. The entire procedure is repeated twice with the same sample, at 24-hour intervals, to verify the invariance of the result.
The nature of series [2]: Solubility in aqueous media (excess solid stirred in buffer, HPLC of filtered supernatant). The following applies: 1 mM acetate buffer at pH 5, 25°C, 24 hours stirring.
Procedure: as §1
Series [3] in a line: Stability to oxidation: reaction with DPPH radical, absorbance at 520 nm. Format: physicochemical. The following applies: 20 nmoles of DPPH in methanol, absorbance at 520 nm after 40 min (Fig. 5).
Procedure: At time zero, 20 nmoles of DPPH and the specified amount of resveratrol or of its derivative were mixed in methanol. Absorbance was measured after 40 min.
The susceptibility to oxidation can be assessed by studying c) the reaction with the 1,1-diphenyl-2-picrylhydrazyl (DPPH) radical.
DPPH is a stable free radical with an absorbance maximum at 520 nm (purple). Upon reaction with polyphenols it is converted to DPPHH (yellow) and this change of colour is an indication of the extent of the reaction which has taken place. The assays were conducted using 96-well plates following Fukumoto and Mazza (2000), measuring absorbance with a Tecan Infinite 200 plate reader.

Consider `O=C(NC(Cc1ccccc1)C(=O)O)Oc1ccc(C=Cc2cc(OC(=O)NC(Cc3ccccc3)C(=O)O)cc(OC(=O)NC(Cc3ccccc3)C(=O)O)c2)cc1` (centres unmarked) [Resv(HOPhe-C)3, 3,4',5-tri-[N-(phenylalanyl)-carbamoyl]-resveratrol], for which the Solubility in water entry in series [1] is “below detection limit”.

On to `CNC(=O)Oc1ccc(C=Cc2cc(OC(=O)NC)cc(OC(=O)NC)c2)cc1` [Resv(Me-C)3, 3,4',5-tri-[N-methyl-carbamoyl]-resveratrol], for which, in series [2], the Solubility in water entry is reported as “below detection limit”.

As for `CCCCCCCCC=CCCCCCCCCNC(=O)Oc1ccc(C=Cc2cc(OC(=O)NCCCCCCCCC=CCCCCCCCC)cc(OC(=O)NCCCCCCCCC=CCCCCCCCC)c2)cc1` [Resv(Oleyl-C)3, 3,4',5-tri-[N-(octadec-9-enyl)-carbamoyl]-resveratrol], the Solubility in water result in series [1] is “below detection limit”.

Consider `COCCOCCOCCNC(=O)Oc1ccc(C=Cc2cc(OC(=O)NCCOCCOCCOC)cc(OC(=O)NCCOCCOCCOC)c2)cc1` [Resv(TGME-C)3, 3,4',5-tri-[N-methoxytri-(ethyleneglycol)-carbamoyl] resveratrol], for which the “reaction with DPPH” value in series [3] is recorded as “does not react at all with DPPH”.

Take `Oc1ccc(C=Cc2cc(O)cc(O)c2)cc1` [resveratrol]: in series [3], the “reaction with DPPH” value is given as “stoichiometric oxidation”.
